pEC50, pKi: −log10 of the molar value.
Legend:
NS3 = NS3 (Hepatitis C virus, UniProt A3EZJ3); assay: Inhibitory activity against HCV NS3 protease; parameters: species or system Hepacivirus hominis
[1] = Selectivity for HNE over HCV NS3 protease
Neutrophil elastase = molecular target: T1, Neutrophil elastase (Homo sapiens, UniProt P08246); assay: Inhibitory activity against HNE; details: read-out: Ki app
T1 sequence (P08246 whole entry): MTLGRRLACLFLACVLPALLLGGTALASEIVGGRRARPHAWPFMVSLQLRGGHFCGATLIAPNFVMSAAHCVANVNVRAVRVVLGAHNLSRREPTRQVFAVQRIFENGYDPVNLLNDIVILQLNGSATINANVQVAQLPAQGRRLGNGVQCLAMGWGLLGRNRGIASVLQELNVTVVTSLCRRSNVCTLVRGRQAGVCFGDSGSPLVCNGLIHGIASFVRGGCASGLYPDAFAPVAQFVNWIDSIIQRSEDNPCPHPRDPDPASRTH

Hepatitis C virus = assay: Inhibition of HCV replication in a cellular replicon assay; assay type: functional, organism-based, Hepacivirus hominis

Sequence of NS3 (A3EZJ3 whole entry): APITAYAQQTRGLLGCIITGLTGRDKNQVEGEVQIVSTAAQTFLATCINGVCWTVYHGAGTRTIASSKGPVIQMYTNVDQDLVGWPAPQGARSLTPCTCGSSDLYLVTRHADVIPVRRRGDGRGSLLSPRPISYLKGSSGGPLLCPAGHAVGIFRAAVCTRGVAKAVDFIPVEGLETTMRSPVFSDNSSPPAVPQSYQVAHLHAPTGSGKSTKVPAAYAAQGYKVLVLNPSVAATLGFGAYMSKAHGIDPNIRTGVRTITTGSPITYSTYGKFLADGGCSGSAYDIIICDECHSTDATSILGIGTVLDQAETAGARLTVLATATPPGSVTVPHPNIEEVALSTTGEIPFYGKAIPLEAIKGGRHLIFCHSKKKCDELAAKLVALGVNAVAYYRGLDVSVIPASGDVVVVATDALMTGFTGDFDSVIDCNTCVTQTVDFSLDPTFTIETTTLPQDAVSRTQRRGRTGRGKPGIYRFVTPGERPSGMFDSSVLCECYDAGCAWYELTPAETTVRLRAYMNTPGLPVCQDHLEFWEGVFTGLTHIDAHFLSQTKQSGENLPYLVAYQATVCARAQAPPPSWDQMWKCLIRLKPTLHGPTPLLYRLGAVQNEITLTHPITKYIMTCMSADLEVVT

SMILES | pKi (NS3; read-out: Ki app) | also measured
CCCC(NC(=O)[C@@H]1C2CCC(C2)N1C(=O)[C@@H](NC(=O)OC(C)(C)C)C(C)(C)C)C(=O)C(=O)NCC(=O)O (some centres undefined) | 5.42 | –
CC(C)CC(NC(=O)[C@@H]1C2CCC(C2)N1C(=O)[C@@H](NC(=O)OC(C)(C)C)C(C)(C)C)C(=O)C(=O)NCC(=O)N[C@H](C(=O)N(C)C)c1ccccc1 (some centres undefined) | 7.40 | –
CC(C)CC(NC(=O)[C@@H]1C2CCC(C2)N1C(=O)[C@@H](NC(=O)OC(C)(C)C)C1CCCCC1)C(=O)C(=O)NCC(=O)N[C@H](C(=O)N(C)C)c1ccccc1 (some centres undefined) | – | pKi (NS3; read-out: Ki): 7.28
CN(C)C(=O)[C@@H](NC(=O)CNC(=O)C(=O)C(CC1CC1)NC(=O)[C@@H]1C2CCC(C2)N1C(=O)[C@@H](NC(=O)NC(C)(C)C)C1CCCCC1)c1ccccc1 (some centres undefined) | – | pKi (NS3; read-out: Ki): 7.72
CCCCC(NC(=O)[C@@H]1C2CCC(C2)N1C(=O)[C@@H](NC(=O)OC(C)(C)C)C(C)(C)C)C(=O)C(=O)NCC(=O)N[C@H](C(=O)N(C)C)c1ccccc1 (some centres undefined) | 7.09 | –
CCCC(NC(=O)[C@@H]1C2CCC(C2)N1C(=O)[C@@H](NC(=O)OC(C)(C)C)C(C)(C)C)C(=O)C(N)=O (some centres undefined) | 5.16 | –
CCCC(NC(=O)[C@@H]1C2CCC(C2)N1C(=O)[C@@H](NC(=O)OC(C)(C)C)C(C)(C)C)C(=O)C(=O)NCC(=O)OCc1ccccc1 (some centres undefined) | 5.82 | –
CCCCC(NC(=O)[C@@H]1C2CC([C@H]3C[C@@H]23)N1C(=O)[C@@H](NC(=O)C(C)(C)C)C1CCCCC1)C(=O)C(=O)NCC(=O)N[C@H](C(=O)N(C)C)c1ccccc1 (some centres undefined) | 7.57 | –
CN(C)C(=O)[C@@H](NC(=O)CNC(=O)C(=O)C(CC1CC1)NC(=O)[C@@H]1C2CCC(C2)N1C(=O)[C@@H](NC(=O)NC(C)(C)C)C(C)(C)C)c1ccccc1 (some centres undefined) | 8.00 | Ratio Ki(app) [1]: 35; pKi (Neutrophil elastase): 6.47
CN(C)C(=O)[C@@H](NC(=O)CNC(=O)C(=O)C(CC1CCC1)NC(=O)[C@@H]1C2CCC(C2)N1C(=O)[C@@H](NC(=O)NC(C)(C)C)C(C)(C)C)c1ccccc1 (some centres undefined) | 7.89 | pKi (Neutrophil elastase): 5.28; pEC50 (Hepatitis C virus): 5.70
CCCCC(NC(=O)[C@@H]1C2CCC(C2)N1C(=O)[C@@H](NC(=O)OC(C)(C)C)C1CCCCC1)C(=O)C(=O)NCC(=O)N[C@H](C(=O)N(C)C)c1ccccc1 (some centres undefined) | – | pEC50 (Hepatitis C virus): 6.22
C=CCNC(=O)C(=O)C(CCC)NC(=O)[C@@H]1C2CCC(C2)N1C(=O)[C@@H](NC(=O)OC(C)(C)C)C(C)(C)C (some centres undefined) | 5.26 | –
CN(C)C(=O)[C@@H](NC(=O)CNC(=O)C(=O)C(CC1CC1)NC(=O)[C@@H]1C2CCC(C2)N1C(=O)[C@@H](NC(=O)OC(C)(C)C)C(C)(C)C)c1ccccc1 (some centres undefined) | 7.72 | –

Further lines, with some results ahead:

pKi (NS3; read-out: Ki app) | SMILES | also measured
7.70 | CN(C)C(=O)[C@@H](NC(=O)CNC(=O)C(=O)C(CC1CC1)NC(=O)[C@@H]1C2CCC(C2)N1C(=O)[C@@H](NC(=O)OC(C)(C)C)C1CCCCC1)c1ccccc1 (some centres undefined) | –
6.96 | CCCC(NC(=O)[C@@H]1C2CCC(C2)N1C(=O)[C@@H](NC(=O)OC(C)(C)C)C(C)(C)C)C(=O)C(=O)NCC(=O)N[C@H](C(=O)N(C)C)c1ccccc1 (some centres undefined) | –
7.05 | CCCC(NC(=O)[C@@H]1C2CC([C@H]3C[C@@H]23)N1C(=O)[C@@H](NC(=O)C(C)(C)C)C1CCCCC1)C(=O)C(=O)NCC(=O)N[C@H](C(=O)N(C)C)c1ccccc1 (some centres undefined) | –
7.57 | CN(C)C(=O)[C@@H](NC(=O)CNC(=O)C(=O)C(CC1CCC1)NC(=O)[C@@H]1C2CCC(C2)N1C(=O)[C@@H](NC(=O)OC(C)(C)C)C(C)(C)C)c1ccccc1 (some centres undefined) | –
7.29 | CN(C)C(=O)[C@@H](NC(=O)CNC(=O)C(=O)C(CC1CCC1)NC(=O)[C@@H]1C2CCC(C2)N1C(=O)[C@@H](NC(=O)OC(C)(C)C)C1CCCCC1)c1ccccc1 (some centres undefined) | –
7.68 | CN(C)C(=O)[C@@H](NC(=O)CNC(=O)C(=O)C(CC1CCC1)NC(=O)[C@@H]1C2CCC(C2)N1C(=O)[C@@H](NC(=O)NC(C)(C)C)C1CCCCC1)c1ccccc1 (some centres undefined) | –
7.05 | CCCC(NC(=O)[C@@H]1C2CCC(C2)N1C(=O)[C@@H](NC(=O)OC(C)(C)C)C1CCCCC1)C(=O)C(=O)NCC(=O)N[C@H](C(=O)N(C)C)c1ccccc1 (some centres undefined) | –

From ChEMBL document CHEMBL1146051, “Novel inhibitors of hepatitis C NS3-NS4A serine protease derived from 2-aza-bicyclo[2.2.1]heptane-3-carboxylic acid” (Bioorg Med Chem Lett, 2006)
